Experimental data from article PMC3425665 (Journal of the American Chemical Society, 2012).

Biological target: aspartate aminotransferase (AAT), K258A mutant (Escherichia coli, UniProt P00509, K246A, form not given)
Assay: X-ray crystallography
Assay type: binding
Conditions: covalent external aldimine with L-aspartate; replaces PLP

Sequence of aspartate aminotransferase (AAT), K258A mutant (P00509 whole entry K246A, form open): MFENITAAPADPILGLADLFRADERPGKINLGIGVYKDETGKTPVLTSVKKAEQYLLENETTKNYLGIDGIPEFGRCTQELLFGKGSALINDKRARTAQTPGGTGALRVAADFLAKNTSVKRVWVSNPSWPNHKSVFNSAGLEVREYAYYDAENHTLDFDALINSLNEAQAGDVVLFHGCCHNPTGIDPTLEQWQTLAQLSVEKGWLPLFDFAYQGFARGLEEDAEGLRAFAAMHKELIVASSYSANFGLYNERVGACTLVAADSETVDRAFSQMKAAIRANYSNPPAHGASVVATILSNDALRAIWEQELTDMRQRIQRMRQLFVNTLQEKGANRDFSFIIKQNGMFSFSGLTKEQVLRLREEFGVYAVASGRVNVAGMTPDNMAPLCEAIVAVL

For `Cc1ccc(COP(=O)(O)O)c(C=O)c1O` [deazaPLP], the “X-ray crystallography (1.5 Å)” value was “structure of the K258A/deazaPLP/L-aspartate external aldimine intermediate determined here by X-ray crystallography”.
